From ChEMBL document CHEMBL5543153, “Discovery of a Potent Dual Son of Sevenless 1 (SOS1) and Epidermal Growth Factor Receptor (EGFR) Inhibitor for the Treatment of Prostate Cancer” (J Med Chem, 2024)
Active and inactive are the calls of the source. No cut-off for these calls is given here.

Tests used:
PC-3 [1] = assay: cells; assay type: functional, cell-based; conditions: Homo sapiens, PC-3, 72 h
Description: Antiproliferative activity against human PC-3 cells assessed as inhibition of cell growth incubated for 72 hrs by MTT assay

[2] = biological target: Epidermal growth factor receptor (Homo sapiens, UniProt P00533); assay: Inhibition of EGFR in human PC-3 cells assessed as downregulation of EGF-mediated AKT phosphorylation at 0.5 uM incubated for 15 mins in presence of EGF by Western blotting analysis; assay type: cell-based
HUVEC = assay: Antiangiogenic activity in HUVEC cells assessed as reduction in tube formation at 0.5 to 12.5 uM incubated for 8 hrs by matrigel based microscopic analysis; assay type: functional, cell-based; conditions: Homo sapiens, dose 0.5-12.5 µM
PC-3 [3] = assay: Induction of cell cycle arrest in human PC-3 cells assessed as downregulation of cyclin D1 expression by Western blotting analysis; assay type: functional, cell-based
PC-3 [4] = assay: Antitumor activity against human PC-3 cells xenografted in BALB/c mouse assessed as reduction in tumor volume at 5 mg/kg,ip administrated once every 4 days for 24 days; assay type: functional, organism-based; conditions: time 24.0 day
NCI-H358 = assay: Antiproliferative activity against human NCI-H358 cells harboring KRAS G12C mutant assessed as inhibition of cell growth incubated for 72 hrs by MTT assay; assay type: functional, cell-based; conditions: NCI-H358, 72 h
[5] = Toxicity in BALB/c mouse xenografted with human PC-3 cells assessed as change in body weight at 5 mg/kg,ip administrated once every 4 days for 24 days; assay type: organism-based; conditions: in vivo, 576 h, time 24 day

Sequence of Epidermal growth factor receptor (P00533 whole entry): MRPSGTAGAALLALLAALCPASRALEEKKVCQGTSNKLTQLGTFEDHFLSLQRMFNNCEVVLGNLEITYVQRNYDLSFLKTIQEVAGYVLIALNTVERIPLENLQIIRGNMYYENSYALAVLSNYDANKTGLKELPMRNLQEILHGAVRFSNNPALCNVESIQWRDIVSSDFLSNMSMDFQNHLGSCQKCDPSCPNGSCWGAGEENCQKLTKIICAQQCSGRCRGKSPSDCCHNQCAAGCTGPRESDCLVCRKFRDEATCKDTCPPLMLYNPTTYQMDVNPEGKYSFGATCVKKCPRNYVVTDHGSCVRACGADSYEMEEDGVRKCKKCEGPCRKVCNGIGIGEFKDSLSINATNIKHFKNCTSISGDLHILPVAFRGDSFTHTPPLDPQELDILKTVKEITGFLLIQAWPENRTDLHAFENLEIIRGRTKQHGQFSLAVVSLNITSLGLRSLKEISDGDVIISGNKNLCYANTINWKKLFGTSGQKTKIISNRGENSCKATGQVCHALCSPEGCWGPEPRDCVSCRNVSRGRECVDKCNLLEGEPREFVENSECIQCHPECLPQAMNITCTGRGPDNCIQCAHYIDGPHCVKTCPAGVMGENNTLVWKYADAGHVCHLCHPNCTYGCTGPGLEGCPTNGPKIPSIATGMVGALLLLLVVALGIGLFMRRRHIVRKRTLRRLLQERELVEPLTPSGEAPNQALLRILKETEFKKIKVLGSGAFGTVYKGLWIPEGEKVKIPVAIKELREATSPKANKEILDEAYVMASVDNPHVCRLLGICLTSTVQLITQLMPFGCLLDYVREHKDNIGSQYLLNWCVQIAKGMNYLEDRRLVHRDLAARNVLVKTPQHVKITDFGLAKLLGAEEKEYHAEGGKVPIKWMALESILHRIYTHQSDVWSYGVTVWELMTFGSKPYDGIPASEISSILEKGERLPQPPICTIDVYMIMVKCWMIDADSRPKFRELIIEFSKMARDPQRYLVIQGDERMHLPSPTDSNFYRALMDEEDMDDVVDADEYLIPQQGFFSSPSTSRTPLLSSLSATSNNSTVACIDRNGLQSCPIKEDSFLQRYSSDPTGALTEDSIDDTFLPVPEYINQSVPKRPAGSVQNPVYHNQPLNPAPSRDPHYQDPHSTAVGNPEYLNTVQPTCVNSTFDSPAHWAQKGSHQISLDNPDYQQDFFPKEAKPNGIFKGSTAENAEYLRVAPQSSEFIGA

For `COc1cc2ncnc(N[C@H](C)c3cccc(F)c3)c2cc1OC1CCOCC1`, the IC50 (PC-3 [1]) was 450 nM, the inhibition [2] was “Active” and the Activity (HUVEC) was “Active”. The Activity (PC-3 [3]) was “Dose-Dependent Effect”, the Activity (PC-3 [4]) was “Active” and the IC50 (NCI-H358) was 550 nM. For the same compound, the Activity [5] was “Toxic”.
